The nature of data set [1]: Toxicity in LoVo efficacy study 540 (body weight, deaths, clinical signs). As to conditions: Tarceva 100 mg/kg (Group 2). The data set is classed as in vivo, female nude mice. On the procedure:
(§1) The health of all animals was determined daily by gross observation of experimental animals and by the analyses of blood samples of sentinel animals that were housed on the shared shelf racks. All animals were allowed to acclimate and recover from any shipping related stress for one week prior to experimental manipulation. […] Cages, bedding and water bottles were autoclaved before use and were changed weekly. […] All in vivo experiments were performed in accordance with protocols approved by the Roche Animal Care and Use Committee (RACUC). The Roche animal care facility is fully accredited by the American Association for the Accreditation of Lab Animal Care (AAALAC).
For efficacy study 540, treatment began on Sep. […] Tarceva™ was administered using a 1 cc syringe and 18-gauge gavage needles (0.2 ml/animal). Oxaliplatin was administered ip using a 1-cc syringe and 26-gauge needle (0.2 ml/animal). All groups were treated q7d for 3 weeks (total 3 injections). Treatment ended on Sep. […] No end of study drug exposure analysis was performed on this study.
(§2) Tumor measurements and mouse weights were taken two-three times per week for LoVo. All animals were individually followed throughout the experiment.

Data set [2] relates to LoVo human colon xenograft. Kind of data set: Anti-tumor efficacy in LoVo human colorectal xenograft in nude mice (experiments 525 and 540). Type of data set: in vivo, female athymic nu/nu mice.
From the text: The goal of this study is to assess the anti-tumor efficacy of the small molecule epidermal growth factor receptor inhibitor (EGFRi) Tarceva™ in combination with oxalipaltin on LoVo colorectal human xenograft, grown in female athymic nu/nu mice. Oxaliplatin is an agent that is currently used clinically in the treatment of colorectal cancer alone and in combination with other chemotherapeutic agents and/or radiation, depending on the stage of disease. In this study, the drugs were combined at their respective maximum tolerated dose (MTD) and also combined together at sub-optimal doses. All doses included in the combination groups were also included in the study as monotherapy arms. The attempt was to achieve maximum efficacy/regression without increased toxicity.
as §1
LoVo cells were grown in F-12K+20% FBS (not heat inactivated) and harvested. 5×10^6 cells/0.2 ml/mouse in PBS (Phosphate Buffered Saline) were implanted subcutaneously in the right flank on Aug.
Formulated compound was made up in one batch for the entire 3 week study.
Oxaliplatin was provided in clinical form. […] An aliquot of the stock vial solutions was taken for each dose group representing the drug needed for that group for the entire study duration and diluted out further with sterile saline, to provide a solution that renders a 0.2 ml dosing volume for each individual animal.
For study 540, animals were randomized according to tumor volume on day 17 post tumor implantation so that all groups had similar starting mean tumor volumes of 100-150 mm^3.
For efficacy study 540, treatment began on Sep. […] Tarceva™ was administered using a 1 cc syringe and 18-gauge gavage needles (0.2 ml/animal). Oxaliplatin was administered ip using a 1-cc syringe and 26-gauge needle (0.2 ml/animal). […] Treatment ended on Sep. […] No end of study drug exposure analysis was performed on this study.
as §2
Efficacy data was graphically represented as the mean tumor volume+standard error of the mean (SEM).
Tumor volume (in cubic millimeters) was calculated using the ellipsoid formula: (D×(d2))/2 • where ‘D’ represents the large diameter of the tumor, and ‘d’ represents the small diameter.
In some cases, tumor regression and/or percent change in tumor volume was calculated using the formula: ((T−T0)/T0)×100 • where ‘T’ represents mean tumor volume of the treated group at a particular day and ‘T0’ represents mean tumor volume of the same treated group at initiation of treatment.
Statistical analysis was determined by the rank sum test and One Way Anova and a post-hoc Bonferroni t-test (SigmaStat, version 2.0, Jandel Scientific, San Francisco, Calif.).
A general note: In xenograft studies the graft and the host belong to different species.

The nature of data set [3]: Maximum tolerated dose / tolerability of Tarceva in nude mice (MTD study and previous efficacy studies). Type of data set: in vivo, naïve female nude mice. On the procedure: Preliminary studies were performed in naïve female nude mice to determine the maximum tolerated dose (MTD) of Tarceva™. The MTD was defined as a dose that renders <20% body weight loss and no death in a 14 day study. […] Based on literature, a dosage for oxaliplatin of 10 mg/kg, once a week intraperitoneal was adopted in the study (Cividalli A, et al. (2002) Int. J. Radiat. Oncol. Biol. Phys. 52(4):1092-1098).

The next data set deals with colorectal cancer. As to conditions: cited from earlier work.
The test system of a further data set is HCT116 tumor model. Particulars: HCT116 model (data not shown).
Setting [4] is: Tarceva 100 mg/kg qd, LoVo, study 540.
[5] abbreviates: oxaliplatin 5 mg/kg q7d ip, LoVo, study 540.
The mark [6] stands for this setting: oxaliplatin 10 mg/kg q7d ip, LoVo, study 540.

Several values for one entry are separate records, joined by “and”; a condition that tells them apart may be missing. Equal values may be shown once. Read-outs that look alike come from different tables or passages of the source. Some results are limits rather than exact numbers.

Protocol for HCT116 tumor model: In our studies, the anti-tumor activity of erlotinib has been evaluated in two human colorectal tumor xenograft models (LoVo and HCT116) in athymic mice. […] Erlotinib was administered as monotherapy or in combination with oxaliplatin to mice with established LoVo or HCT116 tumors. Drugs were combined at their respective maximum therapeutic dose or at suboptimal doses.

With `C#Cc1cccc(Nc2ncnc3cc(OCCOC)c(OCCOC)cc23)c1` [Tarceva™, [6,7-bis(2-methoxyethoxy)-4-quinazolin-4-yl]-(3-ethynylphenyl) amine], the clinical signs result in data set [1] is listed as “classic reddening of the skin”. Besides, the tumor growth inhibition in data set [2] (Tarceva 25 mg/kg qd, LoVo, across experiments) was 53-79%; in data set [2] (Tarceva 25 mg/kg qd, LoVo, study 540, day 39 post tumor implant), 53%. For the same molecule, the “% T/C” value in data set [2] (Tarceva 25 mg/kg qd, LoVo, study 540) is given as 47%; in data set [2] (setting [4]) it was 2%. In addition, in data set [2] (setting [4]), the “number of partial regressions” value is “four”. Also, the “partial regressions (percent, in brackets)” value in data set [2] (setting [4]) is 16% and 7%. For the same molecule, the “tumor growth inhibition (TGI)” value in data set [2] (Tarceva 100 mg/kg qd, LoVo, study 540, day 39 post tumor implant) is 98%; in data set [2] (erlotinib 25 mg/kg monotherapy, LoVo (summary value)), 79%; in data set [2] (erlotinib 100 mg/kg monotherapy, LoVo, experiment 525), over 100%. In data set [2] (Tarceva 100 mg/kg, LoVo, experiments 525 and 540), the tumors partially regressed is on record as 40-60%. Besides, in data set [2] (erlotinib 100 mg/kg monotherapy, LoVo), the “mice showing partial regressions (PR)” value is given as 6/10. Also, the “maximum tolerated dose (MTD)” value in data set [3] (CMC/Tween formulation, 14 day study, MTD = <20% body weight loss and no death) was 100 mg/kg qd. Besides, in data set [3] (CMC/Tween formulation, MTD study), the “toxicity at 200 mg/kg qd” value is given as “showing toxicity”. Moreover, the “tolerability at 150 mg/kg once a day” value in data set [3] (CMC/Tween, 3 weeks, previous efficacy studies) was “tolerated well”.

In the case of `O=C(O)C(=O)O.[NH-][C@@H]1CCCC[C@H]1[NH-].[Pt+2]` [Oxaliplatin], the response rates with colorectal cancer (combined with 5-FU and leucovorin, first-line treatment for colorectal cancer) is 25-40%. Besides, the “% T/C” value in data set [2] (setting [5]) was found to be 67%; in data set [2] (setting [6]), 61%. For the same molecule, the “tumor growth inhibition (TGI)” value is 33% in data set [2] (setting [5]), 39% in data set [2] (setting [6]), 21% in the data set on HCT116 tumor model (oxaliplatin 5 mg/kg) and 26% in the data set with HCT116 tumor model (oxaliplatin 10 mg/kg).

In the case of `O=c1[nH]cc(F)c(=O)[nH]1` [5-fluorouracil], in the data set with colorectal cancer (single-agent treatment, advanced colorectal cancer), the response rates result is reported as “about 10%”.

Values taken from patent US20050272738A1, “Combined treatment with oxaliplatin and an epidermal growth factor receptor kinase inhibitor” (priority 2004, published 2005).
